Measurements from ChEMBL document CHEMBL1133302, “Use of proline bioisosteres in potential HIV protease inhibitors: phenylalanine-2-thiophenoxy-3-pyrrolidinone: synthesis and anti-HIV evaluation” (Bioorg Med Chem Lett, 2000).

Assays:
[1] = target: T1, Human immunodeficiency virus type 1 protease (Human immunodeficiency virus 1, UniProt Q72874); assay: Compound was evaluated for the inhibition of HIV-1 protease
[2] = Selective index is the ratio of CC50 to that of EC50 (CC50/EC50); format: functional
MT4 [3] = assay: CC50 value was measured as concentration required to cause 50% death of uninfected MT-4 cells.; format: functional; conditions: Homo sapiens
MT4 [4] = assay: EC50 value was measured as concentration required to inhibit syncytia formation by 50% in MT-4 cells.; format: functional, cell-based; conditions: Homo sapiens
MT4 [5] = assay: EC50 value was measured as concentration required to inhibit syncytia formation by 50% in MT-4 cells; NA-Nonactive at nontoxic concentration; format: functional, cell-based, Homo sapiens
[6] = target: T1, Human immunodeficiency virus type 1 protease; assay: Compound was evaluated for the inhibition of HIV-1 protease; NA-Nonactive at nontoxic concentration

CC(C)(C)OC(=O)N[C@@H](Cc1ccc(O)cc1)C(=O)N1CCC(=O)[C@@H]1Sc1ccccc1
IC50 [1]: 0.025 µM
SI [2]: > 2
CC50 (MT4 [3]): > 100 µM
EC50 (MT4 [4]): 50 µM

CC(C)(C)OC(=O)N[C@@H](Cc1ccccc1)C(=O)N1CCC(=O)[C@@H]1Sc1ccccc1
IC50 [1]: 1 µM
SI [2]: 2
CC50 (MT4 [3]): 100 µM
EC50 (MT4 [4]): 50 µM

COc1ccc(C[C@H](NC(=O)OC(C)(C)C)C(=O)N2CCC(=O)[C@@H]2Sc2ccccc2)cc1
IC50 [1]: 10 µM
EC50 (MT4 [5]): Not Active
CC50 (MT4 [3]): > 100 µM

CC(C)(C)OC(=O)N[C@@H](Cc1ccc(OCc2ccccc2)cc1)C(=O)N1CCC(=O)[C@H]1Sc1ccccc1
IC50 [1]: 0.02 µM
SI [2]: 500
CC50 (MT4 [3]): 50 µM
EC50 (MT4 [4]): 0.1 µM

O=C(N[C@@H](Cc1ccccc1)C(=O)N1CCC(=O)C1Sc1ccccc1)c1cccnc1 (some centres undefined)
IC50 [1]: 0.1 µM
SI [2]: 50
CC50 (MT4 [3]): 50 µM
EC50 (MT4 [4]): 1 µM

CC(C)(C)OC(=O)NC(Cc1ccccc1)C(=O)N1CCC(=O)C1Sc1ccccc1 (racemic)
EC50 (MT4 [5]): Not Active
CC50 (MT4 [3]): > 100 µM
IC50 [6]: Not Active

CC(C)(C)OC(=O)N[C@@H](Cc1ccccc1)C(=O)N1CCC(=O)[C@H]1Sc1ccccc1
IC50 [1]: 0.008 µM
SI [2]: > 100
CC50 (MT4 [3]): > 100 µM
EC50 (MT4 [4]): 1 µM

COc1ccc(C[C@H](NC(=O)OC(C)(C)C)C(=O)N2CCC(=O)[C@H]2Sc2ccccc2)cc1
IC50 [1]: 10 µM
EC50 (MT4 [5]): Not Active
CC50 (MT4 [3]): 50 µM

CC(C)(C)OC(=O)N[C@@H](Cc1ccc(O)cc1)C(=O)N1CCC(=O)[C@H]1Sc1ccccc1
IC50 [1]: 0.026 µM
SI [2]: 500
CC50 (MT4 [3]): 50 µM
EC50 (MT4 [4]): 0.1 µM

CC(C)(C)OC(=O)N[C@@H](Cc1ccc(OCc2ccccc2)cc1)C(=O)N1CCC(=O)[C@@H]1Sc1ccccc1
IC50 [1]: 0.02 µM
EC50 (MT4 [5]): Not Active
CC50 (MT4 [3]): 10 µM

O=C(N[C@@H](Cc1ccccc1)C(=O)N1CCC(=O)C1Sc1ccccc1)c1ccc2ccccc2n1 (some centres undefined)
IC50 [1]: 5 µM
EC50 (MT4 [5]): Not Active
CC50 (MT4 [3]): 50 µM
